From patent publication EP2431033A1, “Dronedarone for preventing cardiovascular hospitalization or mortality in patients with lone atrial fibrillation” (SANOFI, priority 2010, dated 2012)

Experiments:
[1] = tested on: patients with lone AF; test: Post-hoc analysis of EURIDIS, ADONIS and ATHENA trials, patients with lone AF; type: in vivo; details: for Number of patients with endpoint (lone AF): first cardiovascular hospitalization or death from any cause
Text: (§1) The present invention is illustrated by data from a post-hoc analysis of patients with lone atrial fibrillation enrolled in the clinical trials called EURIDIS, ADONIS and ATHENA trials with the following endpoints: • cardiovascular hospitalization or death from any cause • cardiovascular hospitalization • all cause mortality • cardiovascular mortality
(§2) Individual data from patients with lone AF enrolled in the EURIDIS, ADONIS and ATHENA trials were entered in a central database. (SAS version 8.2). The institutional review board at each site approved the study, and all patients gave written informed consent for taking part in the studies. In short, common enrolment criterion for these studies was the presence of paroxysmal or persistent AF. Patients with permanent AF or with unstable hemodynamic conditions were excluded from participation.
(§3) Lone AF was defined as AF occurring in patients without structural heart disease or arterial hypertension hypertension (not treated with blood pressure lowering medications), and without extracardiac diseases associated with AF (i.e. thyroid disorders).
(§4) In all 3 studies, patients were randomly assigned to double-blind treatment with dronedarone 400 mg BID or matching placebo. Hospitalisation was defined as at least one overnight stay. The main outcome measure of this post-hoc analysis was the time to the composite endpoint of first hospitalization for cardiovascular reasons or death from any cause, and their individual components.
(§5) Baseline parameters of patients with and without lone AF were compared with logistic regression analysis for qualitative and an ANOVA test for quantitative variables. All outcomes were estimated with the use of the Kaplan-Meier method and compared by means of the log-rank test. […] All P values are two-tailed, and statistical significance was assumed at a p-value of 0.05 or smaller.
(§6) The results obtained in this trial were analysed by the Kaplan Meier method for the figures, and the relative risk (RR) was estimated using Cox's proportional-effect regression model.
(§7) The relative risk (RR) is the ratio of the rates of occurrence of a hospitalization or of a death among the patients on dronedarone, relative to the patients on placebo.

[2] = tested on: patients without lone AF; test: Post-hoc analysis of EURIDIS, ADONIS and ATHENA trials, patients without lone AF; type: in vivo
Text: as §1, §2, §3, §4, §5, §6, §7

[3] = first cardiovascular hospitalization, patients with lone AF at baseline, 400mg BID
[4] = patients with lone AF, compared to placebo, x = 1-relative risk
[5] = first cardiovascular hospitalization, patients without lone AF at baseline, 400mg BID

CCCCc1oc2ccc(NS(C)(=O)=O)cc2c1C(=O)c1ccc(OCCCN(CCCC)CCCC)cc1 [Dronedarone, 2-n-Butyl-3-[4-(3-di-n-butylaminopropoxy)benzoyl]-5-methylsulphonamidobenzofuran]
Number of patients with endpoint (lone AF) ([1]; ADONIS, 400mg BID, N=64): 1 (N=64) | Number of patients with endpoint (lone AF) ([1]; ATHENA, 400mg BID, N=95): 26 (N=95) | Number of patients with endpoint (lone AF) ([1]; EURIDIS, 400mg BID, N=81): 7 (N=81) | Number of patients with endpoint (lone AF) ([1]; Lone AF population (3 studies pooled), 400mg BID, N=240): 34 (N=240) | Cumulative incidence of events at 1 year [1, 3]: 0.113 | Cumulative incidence of events at 2 years [1, 3]: 0.195 | Cumulative incidence of events at 6 months [1, 3]: 0.057 | Relative risk ([1]; first cardiovascular hospitalization, patients with lone AF at baseline, vs placebo, cause-specific Cox regression model adjusted on studies): 0.543 | risks for adverse events between placebo and dronedarone ([1]; independent from the AF type): No difference | cardiovascular hospitalisations for AF or other supraventricular arrhythmias ([1]; lone AF, dronedarone group, out of all cardiovascular hospitalisations): 16 of 30 | All-cause mortality (HR) ([1]; lone AF, dronedarone vs placebo, 95%CI=0.31-3.43, p=0.885): 1.02 | cardiovascular hospitalizations alone, HR ([1]; patients with lone AF, compared to placebo, 95%CI=0.34-0.87, p=0.004): 0.54 | cardiovascular hospitalizations or death, hazard ratio (HR) ([1]; patients with lone AF, compared to placebo, 95%CI=0.36-0.88, p=0.004): 0.56 | reduction in cardiovascular hospitalizations alone [1, 4]: 46% | reduction of cardiovascular hospitalizations or death [1, 4]: 44% | drug discontinuation rate ([1]; patients with lone AF, dronedarone arm vs placebo arm): similar | Cumulative incidence of events at 1 year [2, 5]: 0.208 | Cumulative incidence of events at 2 years [2, 5]: 0.321 | Cumulative incidence of events at 6 months [2, 5]: 0.135 | Relative risk ([2]; first cardiovascular hospitalization, patients without lone AF at baseline, vs placebo, cause-specific Cox regression model adjusted on studies): 0.758 | reduction of the risk of CV hospitalizations or death ([2]; patients with other forms of AF): 23% | drug discontinuation ([2]; patients with other forms of AF, dronedarone arm vs placebo arm): more often
